Assay results from PMC3191323 (Journal of medicinal chemistry, 2011).

How the values were obtained:
[1] = tested on: P. falciparum strain 3D7; assay: Malaria SYBR Green I-based fluorescence assay; type: cell-based, Plasmodium falciparum
[2] = tested on: P. falciparum (3D7); assay: Viable cell count; type: cell-based, Plasmodium falciparum; settings: 2xIC50, 72 h
[3] = tested on: P. falciparum; assay: Flow cytometric analysis of parasite DNA replication and nuclear division; type: cell-based, Plasmodium falciparum; settings: 2xIC50, flow cytometry
[4] = tested on: P. falciparum strain W2; assay: Malaria SYBR Green I-based fluorescence assay; type: cell-based; settings: Plasmodium falciparum, W2, 96 h, read-out: Antimalarial activity against P. falciparum IC50, W2
[5] = tested on: HepG2 human hepatocellular liver carcinoma cells; assay: Cytotoxicity in mammalian cells, lactate dehydrogenase assay; type: cell-based; settings: HepG2 vs P. falciparum

SMILES | Cytotoxic response: decrease in viable cell numbers (% parasitemia) [2] | Effect on DNA replication and nuclear division [3] | other results
CCNC(=O)NCCCNCCCCCCNCCCNC(=O)NCC.Cl.Cl [Compound 34, 1,14-Bis-{3-[1-(ethyl)ureado]}-4,11-diazatetradecane Hydrochloride] | – | – | Antimalarial activity against P. falciparum IC50, 3D7 (values in μM) ([1]; drug sensitive strain 3D7, footnote: IC50 values in μM): not active in the μM range
Cl.Cl.S=C(NCCCNCCCCCCCNCCCNC(=S)NCC(c1ccccc1)c1ccccc1)NCC(c1ccccc1)c1ccccc1 [Compound 16] | significant cytotoxic response | greatest inhibitory affect on DNA replication and nuclear division | –
CCN(CC)CCCC(C)Nc1ccnc2cc(Cl)ccc12 (centres unmarked) [CQ, chloroquine, reference compound] | – | – | IC50 [4]: 70 ± 1 nM; IC50 ([1]; Plasmodium falciparum, 3D7, 96 h, read-out: Antimalarial activity against P. falciparum IC50, 3D7): 9 ± 0.04 nM
Cl.Cl.S=C(NCCCNCCCCCCCNCCCNC(=S)NCCC(c1ccccc1)c1ccccc1)NCCC(c1ccccc1)c1ccccc1 [Compound 13] | significant cytotoxic response | – | –
Cl.Cl.O=C(NCCCNCCCCCCCNCCCNC(=O)NCCC(c1ccccc1)c1ccccc1)NCCC(c1ccccc1)c1ccccc1 [Compound 9] | significant cytotoxic response | – | –
Cl.Cl.O=C(NCCCNCCCCCCCNCCCNC(=O)NC(c1ccccc1)c1ccccc1)NC(c1ccccc1)c1ccccc1 [Compound 38, 1,15-Bis-{3-[1-(1′,1′-diphenylmethyl)ureado]}-4,12-diazapentadecane Hydrochloride] | significant cytotoxic response | greatest inhibitory affect on DNA replication and nuclear division | Selectivity towards the parasite compared to HepG2 [5]: > 500 fold
Cl.Cl.S=C(NCCCNCCCCNCCCNC(=S)NCC(c1ccccc1)c1ccccc1)NCC(c1ccccc1)c1ccccc1 [Compound 15] | significant cytotoxic response | – | –
Cl.Cl.O=C(NCCCNCCCCCCNCCCNC(=O)Nc1ccccc1)Nc1ccccc1 [Compound 30, 1,14-Bis-{3-[1-(phenyl)ureado]}-4,11-diazatetradecane Hydrochloride] | significant cytotoxic response | – | –
Cl.Cl.S=C(NCCCNCCCCCCNCCCNC(=S)NC(c1ccccc1)c1ccccc1)NC(c1ccccc1)c1ccccc1 [Compound 25, 1,14-Bis-{3-[1-(1′,1′-diphenylmethyl)thioureado]}-4,11-diazatetradecane Hydrochloride] | significant cytotoxic response | – | –
Cl.Cl.O=C(NCCCNCCCCCCCNCCCNC(=O)NCC(c1ccccc1)c1ccccc1)NCC(c1ccccc1)c1ccccc1 [Compound 39, 1,15-Bis-{3-[1-(2′,2′-diphenylethyl)ureado]}-4,12-diazapentadecane Hydrochloride] | significant cytotoxic response | greatest inhibitory affect on DNA replication and nuclear division | Selectivity towards the parasite compared to HepG2 [5]: > 500 fold
Cl.Cl.S=C(NCCCNCCCCCCNCCCNC(=S)NCc1ccccc1)NCc1ccccc1 [Compound 29, 1,14-Bis-{3-[1-(benzyl)thioureado]}-4,11-diazatetradecane Hydrochloride] | significant cytotoxic response | – | Selectivity towards the parasite compared to HepG2 [5]: > 500 fold
Cl.Cl.S=C(NCCCNCCCCNCCCNC(=S)NCc1ccccc1)NCc1ccccc1 [Compound 20] | not able to decrease viable cell numbers | not able to prevent DNA replication | –
